The values that follow come from US20160089371A1, “Combination of Kinase Inhibitors and Uses Thereof” (INTELLIKINE, LLC, priority 2013, published 2016).

Several values for one entry are separate records, joined by “and”; a condition that tells them apart may be missing. Equal entries are not always repeated.

Test [1] relates to PI3K pathway in MDA-MB-361, MDA-MB-453 and SK-Br3 cells. Briefly: PI3K pathway Western blot in cell lines with elevated PI3Kα activity. The format is cell-based, human. Particulars: 2 h treatment; MDA-MB-361, MDA-MB-453, SK-Br3. The procedure: Cells comprising one or more mutations in PI3Kα, including but not limited to breast cancer cells (e.g., MDA-MB-361, T47D, SKOV-3), and cells comprising one or more mutations in PTEN including but not limited to prostate cancer cells (e.g., PC3), are typically grown in cell growth media such as DMEM supplemented with fetal bovine serum and/or antibiotics, and grown to confluency. Cells are then treated with various concentrations of test compound for about 2 hours and subsequently lysed in cell lysis buffer. Lysates are subjected to SDS-PAGE followed by Western blot analysis to detect downstream signaling markers, including but not limited to pAKT(S473), pAKT(T308), pS6, and p4E-BP1.
MDA-MB-361(PIK3CA-E545K), MDA-MB-453 (PIK3CA-H1047R), and SK-Br3 (Her2) cells were treated with various concentrations of Compound A for 2 h and subsequently lysed. Lysates were subjected to SDS-PAGE followed by Western blot analysis as described above to detect downstream pathway markers.
For orientation: Immunoblotting shows a protein as a band on a membrane.

The subject of test [2] is Akt and S6 phosphorylation. Description: Western blot of PI3K pathway phosphorylation (Akt, S6) in cancer cells. The format is cell-based.
Test [3] has as its system PTEN mutant cells. Briefly: Western blot of Akt, S6, 4EBP phosphorylation in PTEN mutant cells. The test is classed as cell-based. Particulars: PTEN-mutant cell line; FIG. 12B.
Test [4] deals with MDA-MB-361 (PI3Kα/HER2 carcinoma) tumors. Description: In vivo efficacy in xenogenic mouse model of breast cancer. Set-up: species or system nude mice. As to conditions: 70 mg/kg Pan-PI3K inhibitor; 60 mg/kg compound A. On the procedure: Blood glucose was monitored periodically following administration of treatment.
Treatment of tumors (MDA-MB-361) with compounds was discontinued on Day 30. Tumors were measured every 2-5 days.

Test [5] deals with B cell function. Briefly: B cell function in vivo, antibody production after TNP-Ficoll immunization. Particulars: mice immunized with TNP-Ficoll; 70 mg/kg GDC0941; 30, 60 or 120 mg/kg Compound A; 7 days; FIG. 8. On the procedure: Mice were immunized with TNP-Ficoll and treated with 1) vehicle; 2) 70 mg/kg GDC0941; 3) 30 mg/kg Compound A; 4) 60 mg/kg Compound A; or 5) 120 mg/kg Compound A for 7 days. Antibody production was measured as a percentage of control group that were treated with vehicle.

In test [6] the test system is MDA-MB-361 xenografts. Briefly: Antitumor activity and tumor regrowth, MDA-MB-361 xenografts (Example 42). The format is in vivo, Mus musculus. The procedure: (room temperature), shielded from light. The test article Compound A was prepared in 5% NMP+95% PEG400 every 5 to 7 days and stored at approximately 25° C. (room temperature), shielded from light. The control article used in this study was 5% NMP+95% PEG400. Compounds were completely dissolved in NMP by sonication, followed by the addition of an appropriate volume of PEG400, and the final solution was vortexed and sonicated to ensure thorough mixing.
Low-passage MDA-MB-361 cells were grown in Eagle's Minimal Essential Medium (EMEM) media supplemented with 20% fetal bovine serum (FBS) and 1× penicillin/streptomycin (Invitrogen, Carlsbad, Calif., USA) until approximately 80% confluency was reached. Before injection, the cells were detached with GIBCO® trypsin (Invitrogen), washed twice with phosphate-buffered saline (PBS), and resuspended in Roswell Park Memorial Institute (RPMI) media (Invitrogen) without supplements. Cells were resuspended to a final concentration of 5×10^7 cells/mL in RPMI media without supplements. […]
Female 5 to 6-week old female (athymic nu/nu) nude mice were inoculated SC in the flank with 5.0×10^6 MDA-MB-361 cells. Tumor growth was monitored with vernier calipers. The MTV was calculated using the formula V=W^2×L÷2. […] Tumor growth and body weight were measured twice weekly. Percent TGI and body weight change were calculated on Day 29. […] The remaining mice continued on study until Day 65, and tumor size and body weight in these mice were measured every 9 to 11 days.
Antitumor activity was determined by calculating the percent TGI using Equation 1: Percent TGI)=(MTV of the control group−MTV of a treated group)÷MTV of the control group×100
Tumor growth delay was determined by calculating the time until MTV in a given treatment group reached 1000 mm^3 versus the time until MTV in the control group reached 1000 mm^3.
The differences in trends of tumor growth over time between pairs of treatment groups were assessed using linear mixed-effects regression models. These models account for the fact that each animal was measured at multiple time points. […]

In test [7] the test system is 786-O cells (non-mutated PI3Kα) tumors. Description: 786-O human kidney carcinoma xenograft. The format is in vivo, mice. As to conditions: Compound A orally 60 and 120 mg/kg; 1 mg/kg (QD) oral solution. On the procedure:
Compound A was administered orally at 60 and 120 mg/kg and compound A was administered orally as a solution at 1 mg/kg (QD). For example, a PI3Kα inhibitor is compared to a kinase inhibitor with specificity for mTor. […] FIG. 6C also provides biochemical potency data for the two compared inhibitors. PI3 Kinase α, β, γ and δ activity was assayed using the PI3 Kinase HTRF® assay kit (Millipore Corporation). Purified recombinant PI3Kα, PI3Kβ, PI3Kγ and PI3Kδ were obtained from Millipore Corporation. […] Emission ratios were converted into percent inhibitions and imported into GraphPad Prism software. […] IC50 values were determined using a nonlinear regression model available in GraphPad Prism 5.
For orientation: A xenograft is tissue or cells of one species grown in another, often human tumour cells in immunodeficient mice.

For the compound `Nc1nc2cc(-c3ccc4ncc(C(=O)N5CCOCC5)n4c3)ccc2o1` [Compound A], the “inhibition of the PI3K pathway (Western blot, FIG. 11)” value in test [1] is “inhibition of the PI3K pathway”. Moreover, the “inhibition of Akt phosphorylation at serine 473” value in test [2] (FIG. 12A) is recorded as “inhibition of Akt phosphorylation at serine 473”; in test [3], “reduced inhibition”. For the same compound, the “inhibition of the PI3K pathway in cell lines with elevated PI3K α activity” value in test [2] (MDA-MB-361, MDA-MB-453, SKBr3 breast cancer cells, FIG. 11) is “inhibition of the PI3K pathway”. Further, the “tumor weight in breast cancer model (FIG. 9 left panel)” value in test [4] is recorded as “reduction in tumor weight”. For the same compound, the “B cell function in vivo (antibody production, percentage of vehicle control)” value in test [5] is reported as “not”. The “%TGI (Day 29)” value in test [6] (Compound B 0.3 mg/kg, Compound A 60 mg/kg, alone or combined, PO QD 30 days, Day 29) is 77.4%. In addition, the “MTV on Day 29” value in test [6] (Compound B 0.3 mg/kg, Compound A 60 mg/kg, alone or combined, PO QD, n = 8) is 165 mm^3 and 165 ± 105.8 mm^3. The “%TGI (Day 65)” value in test [6] (based on the control group (n = 4) on Day 65) was 69.5%. In addition, the “inhibition of kinase activity and tumor growth in 786-O model (FIG. 6)” value in test [7] is “decreased activity”.
